The results in this text go back to patent US8268755B2, “Oxime ether derivative and fungicide for agricultural and horticultural use” (Nippon Soda Co., Ltd., priority 2007, dated 2012).

Molecules are shown by their SMILES.

With `COC(=O)NOc1cc(/C(C)=N/OCc2cccc(C(F)(F)F)n2)ccc1Cl` [Compound 1446, methyl N-(2-chloro-5-{1-[6-trifluoromethylpyridin-2-ylmethoxyimino]ethyl}phenoxy) carbamate], the melting point (as a rule, the temperature, or range, at which the solid turns liquid) is 100 to 101 °C.
